# From US20250134884A1, “METHOD AND PHARMACEUTICAL COMPOSITION FOR TREATING TYPE II DIABETES” (LUMISTAR BIOTECHNOLOGY, INC., priority 2023, published 2025)
# Experiments:
# MIN6 cells [1] = assay: Insulin secretion by hINS-GLuc luciferase reporter in MIN6 β cells under high glucose; type: cell-based, mouse; settings: 20 mM glucose; for insulin secretion compared to the DMSO control group (luminescence signals from secreted insulin): MIN6 cells, FIG. 4; for position among the top five compounds with significant increase in insulin secretion relative to high glucose stimulation: Table 2
# Protocol: With the inclusion of a luciferase-tagged insulin construct, hINS-GLuc allows for rapid quantification of secreted insulin in the supernatant for drug screening, unlike the traditional method of measuring insulin via ELISA. This quantification is achieved by measuring the luminescence (relative light units, RLU) upon adding the luciferin of coelenterazine.
# For measuring insulin secretion, the medium will first be removed, and MIN6 cells will then be rinsed in Krebs-Ringer buffer (119 mM NaCl, 4.74 mM KCl, 2.54 mM CaCl2), 1.19 mM MgSO4, 1.19 mM KH2PO4, 25 mM NaHCO3, 10 mM Hepes, and 0.1% BSA, pH 7.4) before incubation with or without 20 mM glucose in Krebs-Ringer buffer. Compounds will be added at a final concentration of 25 μM for two hours. At the end of the incubation period, the buffer will be removed, and the cells will then be briefly centrifuged, with the supernatant collected for measuring insulin secretion. Measurement of insulin secretion and C-peptide release will be performed using either an insulin or C-peptide ELISA kit (FIG. 1A), according to the manufacturer's instructions (Mercodia), or by measuring luminescence after adding luciferin (FIGS. 2A, 2B, and 4).
# With the establishment of reporter platform in β cell lines, 50 drugs screening with compounds associated with pathways associated with metabolic diseases are conducted. This included inhibitor or agonist against Glucagon-like peptide-1 (GLP-1), Cytochrome c oxidase (COX), Phosphodiesterase (PDE), AMP activated protein kinase (AMPK), dipeptidyl peptidase-4 (DPP-4), calcium and potassium channels, 5-hydroxytryptamine (5-HT) or estrogen/progestogen receptors. As compounds can either “trigger” insulin secretion (i.e., in low glucose condition) or “amplify” insulin secretion (i.e., in high glucose condition). To mimic hyperglycemic condition, the compounds that may amplify insulin secretion under high glucose conditions have been chosen.
# To enable this screen, we adapted a 96 well format with β cells plated 74 hours prior to compound challenge in triplicates. Post-stimulation, supernatant was aliquoted and transferred into at least 2 empty plates for either storage or luciferase measurement with the addition of coelenterazine.
# FIG. 4 is a relative light unit graph depicting the ability of various 5-HT1A receptor antagonists to induce insulin secretion in MIN6 cells in the presence of a high concentration of glucose.
# MIN6 cells [2] = assay: Single cell Ca2+ flux monitoring with K-GECO1 reporter; type: cell-based, mouse; settings: 20 mM glucose and 25 μM WAY-100635 Maleate, FIG. 3C
# Source text: One component of the reporter construct is a red fluorescent protein (RFP)-based Ca^2+ indicator (i.e., K-GECO1, reporter with an affinity for calcium ion) that is expressed within the cytoplasm. In this example, an inverted microscope (D1, Zeiss) equipped with a 63 Å˜objective lens (NA 1.4, Zeiss) and a multiwavelength LED light source (pE-4000, CoolLED) will be used. Blue (470 nm) and green (550 nm) excitation will be used to illuminate ChR2-EYFP and K-GECO1, respectively. The green fluorescent protein (GFP) filter set, and the red fluorescent protein (RFP) filter set will be used to confirm the expression of ChR2-EYFP and K-GECO1 in cells. […]
# This allowed the detection of Ca^2+ influx into β cell as a consequence of calcium channel opening. β cells expressing the reporter construct were first stimulated with glucose (e.g., 20 mM glucose) to establish a baseline profile of Ca^2+ influx over time. […] FIG. 3A is the fluorescence intensity graph using the K-GECO1 reporter gene in Min6 cells to monitor glucose stimulation; and FIG. 3B is a representative image using the K-GECO1 reporter gene in Min6 cells after glucose stimulation. In FIG. 3A, the horizontal axis represents time (minutes), the vertical axis represents fluorescence intensity, and an arrow represents the point of stimulation and lines represent individual cells. […]
Compound,insulin secretion compared to the DMSO control group (luminescence signals from secreted insulin) (MIN6 cells [1]),"position among the top five compounds with significant increase in insulin secretion relative to high glucose stimulation (MIN6 cells [1]; compound 25 μM, two hours)",Ca2+ influx profile (K-GECO1 fluorescence intensity) (MIN6 cells [2]),"insulin secretion relative to high glucose stimulation alone (luminescence, RLU) (MIN6 cells [1]; compound 25 μM, two hours, reporter expressing β cells, FIG. 2A)"
CCC(=O)c1c(O)cc(O)cc1O [Flopropione],did not show a significant increase,,,
CC(C)Cn1c(=O)n(C)c(=O)c2[nH]cnc21 [IBMX],,4,,
O=c1c(O)c(-c2ccc(O)cc2)oc2cc(O)cc(O)c12 [Kaempferol],,2,,
C[C@H](CN(C(=O)c1ccc(C#N)cc1)c1ccccn1)N1CCN(c2cccc3c2OCCO3)CC1 [Lecozotan],did not show a significant increase,,,
Cc1[nH]c(=O)c(C#N)cc1-c1ccncc1 [Milrinone],,5,,
COc1ccccc1N1CCN(CCN(C(=O)C2CCCCC2)c2ccccn2)CC1.O=C(O)/C=C\C(=O)O [WAY-100635 maleate],significantly increased,3,significant change in Ca^2+ influx profile,promotes insulin secretion
Exendin-4,,1,,
